According to US20100298141A1, “SUBSTITUTED PYRIDINE N-OXIDE HERBICIDES” (E. I. DU PONT DE NEMOURS AND COMPANY, priority 2007, published 2010):

Assays:
Assay in all cases: Test F preemergence test
Conditions in all cases: scale 0 to 100
green foxtail = assay type: in vivo, Setaria viridis
Outline: (§1)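 Compounds in a non-phytotoxic solvent formulation with surfactant were applied before emergence after sowing, or, for sugarcane, also postemergence. Evaluation was visual, against controls, after 14 to 21 greenhouse days.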

common ragweed = assay type: in vivo, Ambrosia elation
Outline: as §1

Italian ryegrass = assay type: in vivo, Lolium multiflorum
Outline: as §1

field bindweed = assay type: in vivo, Convolvulus arvensis
Outline: as §1

pitted morningglory = assay type: in vivo, Ipomoea lacunosa
Outline: as §1

Surinam grass = assay type: in vivo, Brachiaria decumbens
Outline: as §1

naked crabgrass = assay type: in vivo, Digitaria nuda
Outline: as §1

common mallow = assay type: in vivo, Malva sylvestris
Outline: as §1

barnyardgrass = assay type: in vivo, Echinochloa crus-galli
Outline: as §1

bermudagrass = assay type: in vivo, Cynodon dactylon
Outline: as §1

quackgrass = assay type: in vivo, Elytrigia repens
Outline: as §1

common purslane = assay type: in vivo, Portulaca oleracea
Outline: as §1

prickly sida = assay type: in vivo, Sida spinosa
Outline: as §1

southern sandbur = assay type: in vivo, Cenchrus echinatus
Outline: as §1

annual bluegrass = assay type: in vivo, Poa annua
Outline: as §1

guineagrass = assay type: in vivo, Panicum maximum
Outline: as §1

large crabgrass = assay type: in vivo, Digitaria sanguinalis
Outline: as §1

mustard = assay type: in vivo, Brassica nigra
Outline: as §1

common chickweed = assay type: in vivo, Stellaria media
Source text: Seeds of plant species selected from bermudagrass (Cynodon dactylon), Surinam grass (Brachiaria decumbens), large crabgrass (Digitaria sanguinalis), green foxtail (Setaria viridis), goosegrass (Eleusine indica), johnsongrass (Sorghum halepense), kochia (Kochia scoparia), pitted morningglory (Ipomoea lacunosa), purple nutsedge (Cyperus rotundus), common ragweed (Ambrosia elation), mustard (Brassica nigra), guineagrass (Panicum maximum), […] (Paspalum dilatatum), barnyardgrass (Echinochloa crus-galli), southern sandbur (Cenchrus echinatus), common sowthistle (Sonchus oleraceous), prickly […] spinosa), Italian ryegrass (Lolium multiflorum), common purslane (Portulaca oleracea), broadleaf signalgrass (Brachiaria platyphylla), common groundsel (Senecio vulgaris), common chickweed (Stellaria media), Virginia dayflower (Commelina virginica), annual bluegrass (Poa annua), naked crabgrass (Digitaria nuda), […] cochinchinensis), quackgrass (Elytrigia repens), Canada horseweed (Conyza canadensis), field bindweed (Convolvulus arvensis), […] (Bidens bipinnata), common mallow (Malva sylvestris), Russian thistle (Salsola kali), and sugarcane (Saccharum officinarum) were planted and treated preemergence with test chemicals formulated in a non-phytotoxic solvent mixture which included a surfactant. At a different time, sugarcane was treated with postemergence applications of some of the test chemicals formulated in the same manner. Plants were approximately 3- to 4-leaf stage for the postemergence treatments. Treated plants and controls were maintained in a greenhouse for 14 to 21 days, after which time all species were compared to controls and visually evaluated. […] A dash (-) response means no test result.

## Cn1nc(C(F)(F)F)c(C[S+]([O-])c2cccc[n+]2[O-])c1OC(F)F (stereo not drawn) [Compound 3]
Green foxtail; 8 g ai/ha, preemergence
  Plant response rating, Foxtail, Green: 0
Green foxtail; 62 g ai/ha, Preemergence
  Foxtail, Green plant response rating: 95
Green foxtail; Preemergence, 16 g ai/ha
  Plant response rating, Foxtail, Green: 40
Green foxtail; Preemergence, 31 g ai/ha
  Plant response rating, Foxtail, Green: 75
Common ragweed; 8 g ai/ha, preemergence
  Plant response rating, Ragweed: 0
Common ragweed; 62 g ai/ha, Preemergence
  Ragweed plant response rating: 90
Common ragweed; Preemergence, 16 g ai/ha
  Plant response rating, Ragweed: 60
Common ragweed; Preemergence, 31 g ai/ha
  Plant response rating, Ragweed: 80
Italian ryegrass; 8 g ai/ha, preemergence
  Plant response rating, Ryegrass, Italian: 0
Italian ryegrass; 62 g ai/ha, Preemergence
  Ryegrass, Italian plant response rating: 80
Italian ryegrass; Preemergence, 16 g ai/ha
  Plant response rating, Ryegrass, Italian: 30
Italian ryegrass; Preemergence, 31 g ai/ha
  Plant response rating, Ryegrass, Italian: 65
Field bindweed; 8 g ai/ha, preemergence
  Plant response rating, Field Bindweed: 0
Field bindweed; 62 g ai/ha, Preemergence
  Field Bindweed plant response rating: 25
Field bindweed; Preemergence, 16 g ai/ha
  Plant response rating, Field Bindweed: 0
Field bindweed; Preemergence, 31 g ai/ha
  Plant response rating, Field Bindweed: 25
Pitted morningglory; 8 g ai/ha, preemergence
  Plant response rating, Morningglory: 0
Pitted morningglory; 62 g ai/ha, Preemergence
  Morningglory plant response rating: 35
Pitted morningglory; Preemergence, 16 g ai/ha
  Plant response rating, Morningglory: 0
Surinam grass; 8 g ai/ha, preemergence
  Plant response rating, Surinam Grass: 0
Surinam grass; 16 g ai/ha, preemergence
  Plant response rating, Surinam Grass: 0
Surinam grass; 62 g ai/ha, Preemergence
  Surinam Grass plant response rating: 95
Surinam grass; Preemergence, 31 g ai/ha
  Plant response rating, Surinam Grass: 85
Naked crabgrass; 8 g ai/ha, preemergence
  Plant response rating, Crabgrass, Naked: 20
Naked crabgrass; 62 g ai/ha, Preemergence
  Crabgrass, Naked plant response rating: 100
Naked crabgrass; Preemergence, 16 g ai/ha
  Plant response rating, Crabgrass, Naked: 80
Naked crabgrass; Preemergence, 31 g ai/ha
  Plant response rating, Crabgrass, Naked: 90
Common mallow; 8 g ai/ha, preemergence
  Plant response rating, Mallow: 0
Common mallow; 62 g ai/ha, Preemergence
  Mallow plant response rating: 75
Common mallow; Preemergence, 16 g ai/ha
  Plant response rating, Mallow: 0
Common mallow; Preemergence, 31 g ai/ha
  Plant response rating, Mallow: 0
barnyardgrass; 8 g ai/ha, preemergence
  Plant response rating, Barnyardgrass: 40
barnyardgrass; 62 g ai/ha, Preemergence
  Barnyardgrass plant response rating: 100
barnyardgrass; Preemergence, 16 g ai/ha
  Plant response rating, Barnyardgrass: 80
barnyardgrass; Preemergence, 31 g ai/ha
  Plant response rating, Barnyardgrass: 90
bermudagrass; 8 g ai/ha, preemergence
  Plant response rating, Bermudagrass: 0
bermudagrass; 62 g ai/ha, Preemergence
  Bermudagrass plant response rating: 85
bermudagrass; Preemergence, 16 g ai/ha
  Plant response rating, Bermudagrass: 0
bermudagrass; Preemergence, 31 g ai/ha
  Plant response rating, Bermudagrass: 65
quackgrass; 8 g ai/ha, preemergence
  Plant response rating, Quackgrass: 0
quackgrass; 62 g ai/ha, Preemergence
  Quackgrass plant response rating: 75
quackgrass; Preemergence, 16 g ai/ha
  Plant response rating, Quackgrass: 15
quackgrass; Preemergence, 31 g ai/ha
  Plant response rating, Quackgrass: 70
Common purslane; 8 g ai/ha, preemergence
  Plant response rating, Purslane: 0
Common purslane; 62 g ai/ha, Preemergence
  Purslane plant response rating: 100
Common purslane; Preemergence, 16 g ai/ha
  Plant response rating, Purslane: 0
Common purslane; Preemergence, 31 g ai/ha
  Plant response rating, Purslane: 60
Prickly sida; 8 g ai/ha, preemergence
  Plant response rating, Prickly Sida: 0
Prickly sida; 62 g ai/ha, Preemergence
  Prickly Sida plant response rating: 100
Prickly sida; Preemergence, 16 g ai/ha
  Plant response rating, Prickly Sida: 0
Prickly sida; Preemergence, 31 g ai/ha
  Plant response rating, Prickly Sida: 80
Southern sandbur; 8 g ai/ha, preemergence
  Plant response rating, Sandbur: 20
Southern sandbur; 16 g ai/ha, preemergence
  Plant response rating, Sandbur: 65
Southern sandbur; 62 g ai/ha, Preemergence
  Sandbur plant response rating: 95
Southern sandbur; Preemergence, 31 g ai/ha
  Plant response rating, Sandbur: 90
Annual bluegrass; 8 g ai/ha, preemergence
  Plant response rating, Bluegrass: 0
Annual bluegrass; 62 g ai/ha, Preemergence
  Bluegrass plant response rating: 50
Annual bluegrass; Preemergence, 16 g ai/ha
  Plant response rating, Bluegrass: 0
Annual bluegrass; Preemergence, 31 g ai/ha
  Plant response rating, Bluegrass: 50
guineagrass; 8 g ai/ha, preemergence
  Plant response rating, Guineagrass: 0
guineagrass; 62 g ai/ha, Preemergence
  Guineagrass plant response rating: 100
guineagrass; Preemergence, 16 g ai/ha
  Plant response rating, Guineagrass: 90
guineagrass; Preemergence, 31 g ai/ha
  Plant response rating, Guineagrass: 100
Large crabgrass; 8 g ai/ha, preemergence
  Plant response rating, Crabgrass, Large: 0
Large crabgrass; 62 g ai/ha, Preemergence
  Crabgrass, Large plant response rating: 100
Large crabgrass; Preemergence, 16 g ai/ha
  Plant response rating, Crabgrass, Large: 20
Large crabgrass; Preemergence, 31 g ai/ha
  Plant response rating, Crabgrass, Large: 70
mustard; 8 g ai/ha, preemergence
  Plant response rating, Black Mustard: 35
mustard; 62 g ai/ha, Preemergence
  Black Mustard plant response rating: 100
mustard; Preemergence, 16 g ai/ha
  Plant response rating, Black Mustard: 60
mustard; Preemergence, 31 g ai/ha
  Plant response rating, Black Mustard: 95
Common chickweed; 8 g ai/ha, preemergence
  Plant response rating, Chickweed: 25
Common chickweed; 62 g ai/ha, Preemergence
  Chickweed plant response rating: 100
Common chickweed; Preemergence, 16 g ai/ha
  Plant response rating, Chickweed: 98
Common chickweed; Preemergence, 31 g ai/ha
  Plant response rating, Chickweed: 100
